Experimental data reported in ChEMBL document CHEMBL5537171, “Design, Synthesis, and Biological Evaluation of Potent and Selective PROTAC Degraders of Oncogenic KRASG12D” (J Med Chem, 2024).
Calls of active or inactive are those of the source. No cut-off for these calls is given here.

What was measured:
ASPC1 [1] = assay: Antiproliferative activity against human ASPC1 cells assessed as inhibition of cell viability incubated for 6 hrs followed by compound washout measured after 114 hrs by Cell Titer Glo assay; type: functional, cell-based
ASPC1 [2] = assay: Antiproliferative activity against human ASPC1 cells harboring KRAS G12D mutant assessed as inhibition of cell viability incubated for 5 days by Cell Titer Glo assay; type: functional, cell-based; details: ASPC1, 120 h
[3] = test system: von Hippel-Lindau disease tumor suppressor/GTPase KRas (Homo sapiens), P01116+P40337 [G12C]; assay: PROTAC activity at VHL/KRAS G12C mutant in human NCI-H358 cells assessed as induction of protein degradation at 1 uM incubated for 24 hrs by Western blot analysis relative to control; type: cell-based
[4] = test system: von Hippel-Lindau disease tumor suppressor/GTPase KRas (Homo sapiens), P01116+P40337 [G13D]; assay: PROTAC activity at VHL/KRAS G13D mutant in human HCT-116 cells assessed as induction of protein degradation at 0.1 uM incubated for 24 hrs by Western blot analysis; type: cell-based
[5] = test system: von Hippel-Lindau disease tumor suppressor/GTPase KRas (Homo sapiens), P01116+P40337 [G12D]; assay: In vivo PROTAC activity at VHL/KRAS G12D mutant in human ASPC1 cells xenografted in BALB/c nude mouse assessed as induction of protein degradation at 50 mg/kg, sc measured for 3 to 72 hrs by Western blot analysis; type: functional, organism-based; details: time 3-72 hrs
Sequence of von Hippel-Lindau disease tumor suppressor/GTPase KRas (Homo sapiens), P01116+P40337 [G12D] (P01116 whole entry G12D): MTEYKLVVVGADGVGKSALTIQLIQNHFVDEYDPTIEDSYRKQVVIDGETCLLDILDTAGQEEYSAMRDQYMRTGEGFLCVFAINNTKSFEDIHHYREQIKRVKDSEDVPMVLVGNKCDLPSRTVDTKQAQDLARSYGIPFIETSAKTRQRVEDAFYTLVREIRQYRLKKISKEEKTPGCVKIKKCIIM
Sequence of von Hippel-Lindau disease tumor suppressor/GTPase KRas (Homo sapiens), P01116+P40337 [G12D] (P40337 whole entry partner): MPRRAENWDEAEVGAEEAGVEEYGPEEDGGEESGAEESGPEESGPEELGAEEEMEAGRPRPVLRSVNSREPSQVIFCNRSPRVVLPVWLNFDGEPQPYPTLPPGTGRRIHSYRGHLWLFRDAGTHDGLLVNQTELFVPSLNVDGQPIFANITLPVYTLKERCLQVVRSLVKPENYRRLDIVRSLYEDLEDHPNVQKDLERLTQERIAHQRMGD

[6] = test system: von Hippel-Lindau disease tumor suppressor/GTPase KRas (Homo sapiens), P01116+P40337 [G12D]; assay: PROTAC activity at VHL/KRAS G12D mutant in human ASPC1 cells assessed as induction of protein degradation at 1 uM incubated for 6 hrs by Western blot analysis; type: cell-based
[7] = test system: von Hippel-Lindau disease tumor suppressor/GTPase KRas (Homo sapiens), P01116+P40337 [G12D]; assay: PROTAC activity at VHL/KRAS G12D mutant in human SNU1 cells assessed as decrease in pERK level at 1 uM incubated upto 24 hrs by Western blot analysis; type: cell-based
[8] = test system: von Hippel-Lindau disease tumor suppressor/GTPase KRas (Homo sapiens), P01116+P40337 [G12D]; assay: In vivo PROTAC activity at VHL/KRAS G12D mutant in human ASPC1 cells xenografted in BALB/c nude mouse assessed as decrease in DUSP4 mRNA level at 50 mg/kg, sc measured for 24 hrs by RT-qPCR analysis; type: functional, organism-based
[9] = Selectivity index, ratio of IC50 for human ASPC1 cells assessed as inhibition of cell viability incubated for 6 hrs followed by compound washout measured after 114 hrs by Cell Titer Glo assay to IC50 for human ASPC1 cells assessed as inhibition of cell viability incubated for 120 hrs of continuous treatment by Cell Titer Glo assay; type: functional
[10] = Toxicity in BALB/c nude mouse xenografted with human ASPC1 cells assessed as body weight loss at 50 mg/kg, sc for 22 days; type: organism-based; details: in vivo, 528 h, time 22 day
[11] = molecular target: T1, von Hippel-Lindau disease tumor suppressor/GTPase KRas (Homo sapiens, UniProt P01116+P40337, G12D); assay: PROTAC activity at VHL/KRAS G12D mutant in human AGS cells assessed as induction of protein degradation incubated for 24 hrs by Western blot analysis; type: cell-based
T1 sequence (P01116 whole entry G12D, stated change not applied): as the sequence (P01116 whole entry G12D) above
T1 sequence (P40337 whole entry, stated change not applied): as the sequence (P40337 whole entry partner) above

ASPC1 [12] = assay: Downregulation of DUSP4 level in human ASPC1 cells at 0.1 uM incubated for 6 hrs by DIA-based proteomic analysis; type: functional, cell-based
ASPC1 [13] = assay: Antiproliferative activity against human ASPC1 cells assessed as inhibition of cell viability incubated for 120 hrs of continuous treatment by Cell Titer Glo assay; type: functional, cell-based; details: ASPC1, 120 h
[14] = Toxicity in BALB/c nude mouse xenografted with human ASPC1 cells assessed as drug tolerance at 50 mg/kg, sc for 22 days; type: organism-based; details: in vivo, 528 h, time 22 day
ASPC1 [15] = assay: Antitumor activity in human ASPC1 cells xenografted in BALB/c nude mouse assessed as tumor growth inhibition at 50 mg/kg, sc administered once daily for 22 days relative to control; type: functional; details: ASPC1, 528 h, time 22 day, read-out: TGI
[16] = test system: von Hippel-Lindau disease tumor suppressor/GTPase KRas (Homo sapiens), P01116+P40337 [G12D]; assay: In vivo PROTAC activity at VHL/KRAS G12D mutant in human ASPC1 cells xenografted in BALB/c nude mouse assessed as decrease in pERK level at 50 mg/kg, sc measured for 24 hrs by Western blot analysis; type: functional, organism-based
HPAF-II = assay: Antiproliferative activity against human HPAF-II cells harboring KRAS G12D mutant assessed as inhibition of cell viability incubated for 5 days by Cell Titer Glo assay; type: functional, cell-based; details: 120 h
[17] = molecular target: T1, von Hippel-Lindau disease tumor suppressor/GTPase KRas; assay: PROTAC activity at VHL/KRAS G12D mutant in human ASPC1 cells assessed as inhibition of pERK level incubated for 24 hrs by Western blot analysis; type: cell-based
[18] = molecular target: T1, von Hippel-Lindau disease tumor suppressor/GTPase KRas; assay: PROTAC activity at VHL/KRAS G12D mutant in human PANC-1 cells assessed as induction of protein degradation incubated for 24 hrs by Western blot analysis; type: cell-based
[19] = AUClast in BALB/c mouse at 10 mg/kg, sc by LC-MS/MS analysis; type: ADME, organism-based; details: in vivo
[20] = molecular target: T1, von Hippel-Lindau disease tumor suppressor/GTPase KRas; assay: PROTAC activity at VHL/KRAS G12D mutant in human SNU1 cells assessed as inhibition of pERK level incubated for 24 hrs by Western blot analysis; type: cell-based
ASPC1 [21] = assay: Downregulation of KRT9 level in human ASPC1 cells at 0.1 uM incubated for 6 hrs by DIA-based proteomic analysis; type: functional, cell-based
[22] = test system: von Hippel-Lindau disease tumor suppressor/GTPase KRas (Homo sapiens), P01116+P40337 [G12D]; assay: PROTAC activity at VHL/KRAS G12D mutant in human ASPC1 cells assessed as decrease in pERK level at 1 uM incubated upto 24 hrs by Western blot analysis; type: cell-based
[23] = Competitive binding affinity to His-tagged VHL/Elongin C/Elongin B (unknown origin) by FP assay; set-up: species or system Homo sapiens
NCI-H1975 = assay: Antiproliferative activity against human NCI-H1975 cells harboring wild-type KRAS assessed as inhibition of cell viability incubated for 5 days by Cell Titer Glo assay; type: functional, cell-based; details: NCI-H1975, 120 h
[24] = Tmax in BALB/c mouse at 10 mg/kg, sc by LC-MS/MS analysis; type: ADME, organism-based; details: in vivo
ASPC1 [25] = assay: Downregulation of DUSP4 mRNA level in human ASPC1 cells at 0.1 to 1 uM incubated for 6 hrs by RT-qPCR analysis; type: functional, cell-based; details: dose 0.1-1 µM
Panc 04.03 = assay: Antiproliferative activity against human Panc 04.03 cells harboring KRAS G12D mutant assessed as inhibition of cell viability incubated for 5 days by Cell Titer Glo assay; type: functional, cell-based; details: Panc 04.03, 120 h
[26] = molecular target: von Hippel-Lindau disease tumor suppressor/GTPase KRas (Homo sapiens) (UniProt P01116+P40337); assay: PROTAC activity at VHL/KRAS in human NCI-H1975 cells assessed as induction of protein degradation at 0.1 uM incubated for 24 hrs by Western blot analysis; type: cell-based
Sequence of von Hippel-Lindau disease tumor suppressor/GTPase KRas (Homo sapiens) (P01116 whole entry, looked up): as the sequence (P01116 whole entry G12D) above, with D12G counted along it
Sequence of von Hippel-Lindau disease tumor suppressor/GTPase KRas (Homo sapiens) (P40337 whole entry, looked up): as the sequence (P40337 whole entry partner) above

[27] = test system: von Hippel-Lindau disease tumor suppressor/GTPase KRas (Homo sapiens), P01116+P40337 [G12D]; assay: PROTAC activity at VHL/KRAS G12D mutant in human ASPC1 cells assessed as induction of protein degradation at 1 uM pretreated with BafA1 followed by compound treatment for 6 hrs by Western blot analysis; type: cell-based
[28] = molecular target: T1, von Hippel-Lindau disease tumor suppressor/GTPase KRas; assay: PROTAC activity at VHL/KRAS G12D mutant in human HPAF-II cells assessed as induction of protein degradation incubated for 24 hrs by Western blot analysis; type: cell-based
ASPC1 [29] = assay: Downregulation of KRT14 level in human ASPC1 cells at 0.1 uM incubated for 6 hrs by DIA-based proteomic analysis; type: functional, cell-based

Compound `CCc1c(F)ccc2cc(O)cc(-c3ncc4c(N5C[C@H]6CC[C@@H](C5)N6)nc(OC[C@@H]5CCCN5CCCCOCC(=O)N[C@H](C(=O)N5C[C@H](O)C[C@H]5C(=O)N[C@@H](C)c5ccc(-c6scnc6C)cc5)C(C)(C)C)nc4c3F)c12` has an IC50 (ASPC1 [1]) of 231 nM, an IC50 (ASPC1 [2]) of 60 nM and an Activity [3] of 37.4%. The Activity [4] was “inactive”, the Activity [5] was “Active” and the Activity [6] was “Active”. The Activity [7] was “Active”, the Activity [8] was “Active” and the “Ratio IC50” value [9] was 3.78. For the same compound, the Activity [10] was “Non-Toxic”, the DC50 [11] was 7.49 nM and the Activity (ASPC1 [12]) was “Active”. For the same compound, the IC50 (ASPC1 [13]) was 61.1 nM, the Activity [14] was “Non-Toxic” and the inhibition in vivo at 50 mg/kg (ASPC1 [15]) was 68.6%. The Activity [16] was “Active”, the IC50 (HPAF-II) was 45.2 nM and the IC50 [17] was 52.9 nM. For the same compound, the DC50 [18] was 87.8 nM, the AUC(0-t) [19] was 4470 ng·h/mL and the IC50 [20] was 17.7 nM. The Activity (ASPC1 [21]) was “Active”, the Activity [22] was “Active” and the IC50 [23] was 299 nM. For the same compound, the IC50 (NCI-H1975) was > 10000 nM, the Tmax [24] was 15 min and the Activity (ASPC1 [25]) was “Active”. For the same compound, the IC50 (Panc 04.03) was 51.5 nM, the Activity [26] was “inactive” and the Activity [27] was “Active”. The DC50 [28] was 53 nM and the Activity (ASPC1 [29]) was “Active”.
